The source of these data is US12006355B2, “Nanobodies against cystic fibrosis transmembrane conductance regulator (CFTR) inhibitory factor (Cif)” (priority 2017, dated 2024).

Structures are written as SMILES. Values joined by “and” are separate entries in the source; they are usually repeats but may differ in a detail not shown here. Equal values may be shown once.

The target of experiment [1] is T1, Cif (Pseudomonas aeruginosa, UniProt A0A0H2ZD27).
T1 construct: made in house
Nature of the experiment: Competitive or displacement sandwich ELISA (dsELISA) with Nb 219. In kind it is binding. As to the method: 2). Competitive or Displacement Sandwich assay. A 96-well plate was coated with pAb at 3 μg/mL, 100 μL per well at RT for 1 h. The plate was blocked with 1% skimmed milk in PBST at RT for at least 2 h. Cif in PBS was loaded at 20 ng/mL, 100 μL/well and incubated for 1 h at RT. Following 5 times wash with PBST, a serial dilution of small molecule synthetic inhibitors in PBS containing 20% methanol at 50 μL/well was loaded, followed by 50 μL/well of VHH at 0.1 μg/mL (or 5 ng/well) in PBS and incubated for 1 h at RT. Mouse anti-HA-HRP conjugate was added at 100 μl/well in a 1:3000 dilution as instructed by manufacturer. The plate was incubated for 1h at RT and washed 5 times. The plate was developed for 10 min with substrate solution added at 100 μl/well. The reaction was stopped by addition of 2M H2SO4 (50 μl/well) and absorbance was read at 450 nm. SigmaPlot 11.0 software was used for curve fitting and data analysis.
Development of nanobody-based screening assay. […] In this assay, the plate was coated with polyclonal anti-Cif antibody (pAb) that captured Cif-protein. Inhibitory anti-Cif Nb in role of a reporter was added at constant concentration together with a serial dilution of a tested inhibitor. […] In this assay, the amount of anti-Cif pAb loaded in the plate was optimized first. […] Second, the amount of Cif-protein captured on pAb was optimized. […] Both nanobodies 113 and 219 were evaluated in the inhibitory assay.
For orientation: ELISA stands for enzyme-linked immunosorbent assay.

The target of experiment [2] is T1, Cif. As to the kind of experiment: biochemical. The note with it: Fluorescent assay IC50, Table 7, small molecule inhibitors. Here is the method: Fluorescent-based Cif Inhibitory assay. Activity of enzyme was measured using a sensitive fluorescent-based assay similar to the method previously described for other EHs (29,30). Cyano(6-methoxynaphthalen-2-yl)methyl glycidyl carbonate (CMNGC) was used as a fluorescent reporter substrate. […] A schematic of the assay is depicted in FIG. 1.
Reported IC50 values are the average of triplicates with at least two data points above and at least two below the IC50. […] Control experiments without Cif (inhibitor/VHH and substrate) were used to evaluate the intrinsic fluorescence of inhibitors.

For experiment [3], the target named is T1, Cif. Nature of the experiment: Octet bio-layer interferometry. It is filed as binding. To be noted: steady state analysis, 30° C. As to the method: Octet Bio-Layer Interferometry: KD of Cif and their inhibitors was determined by Bio-Layer Interferometry using an Octet Red instrument (ForteBio). Recombinant Cif-His was prepared as described previously (20,29). Stocks of purified proteins were stored at 4° C. until used.

T1 sequence (A0A0H2ZD27 25-319 limits assumed): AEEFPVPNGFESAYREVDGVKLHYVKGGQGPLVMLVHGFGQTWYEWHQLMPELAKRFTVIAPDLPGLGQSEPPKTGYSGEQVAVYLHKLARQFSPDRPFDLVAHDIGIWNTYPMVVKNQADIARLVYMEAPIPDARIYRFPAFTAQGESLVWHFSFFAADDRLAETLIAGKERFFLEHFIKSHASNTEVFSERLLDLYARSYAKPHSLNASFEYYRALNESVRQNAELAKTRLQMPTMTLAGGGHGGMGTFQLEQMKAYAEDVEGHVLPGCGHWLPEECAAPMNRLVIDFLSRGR

Regarding `O=C(O)CC(=O)Nc1cc(Cl)c(Oc2ccc(O)cc2)c(Cl)c1` [Compound 1, 3-((3,5-dichloro-4-(4-hydroxyphenoxy)phenyl)amino)-3-oxopropanoic acid, reference compound], the concentration for a half-maximal effect (EC50) (as a rule, the concentration giving half of the maximal effect) in experiment [1] was more than 200000 nM. Besides, the concentration for half-maximal inhibition (IC50) (as a rule, the midpoint of a concentration-inhibition curve) in experiment [2] was more than 50000 nM.
As to `NC(=O)c1ccc(-c2cc(Oc3c(Cl)cc(N)cc3Cl)ccc2O)cc1` [Compound 7, 5′-(4-amino-2,6-dichlorophenoxy)-2′-hydroxy-[1,1′-biphenyl]-4-carboxamide], binding in experiment [3] was characterised by a dissociation constant (Kd) of 900 nM. In experiment [1], this molecule yielded a concentration giving a half-maximal response (EC50) of 700 nM. For the same molecule, the IC50 in experiment [2] was ~500 nM and 550 nM.
Take `CCC(=O)Nc1cc(Cl)c(Oc2ccc(O)c(-c3ccc(C(N)=O)c(F)c3)c2)c(Cl)c1` [Compound 8, 5′-(2,6-dichloro-4-propionamidophenoxy)-3-fluoro-2′-hydroxy-[1,1′-biphenyl]-4-carboxamide]: the equilibrium dissociation constant (Kd) (in general, the concentration at which binding is half-saturated) in experiment [3] is 160 nM and 200 nM. In addition, the 50% effective concentration (EC50) in experiment [1] came to 200 nM. Besides, the “fold more potent than 8c” value in experiment [1] (nanobody-based inhibitory sandwich ELISA) turned out to be 1 fold. Further, the IC50 in experiment [2] was ~500 nM and 470 nM.
